Converted amounts (≈) assume the structure as drawn.
Experiment: physchem
Conditions: Solubility of RA
Method: Therefore, TPGS is added with ethanol to increase the solubility of the hydrophobic drug in according to the present invention.

CC1=C(/C=C/C(C)=C/C=C/C(C)=C/C(=O)O)C(C)(C)CCC1 [RA, All-Trans Retinoic Acid] gave a solubility (aqueous buffer) of under 0.1 µg/mL and a solubility (saline or isotonic) of 4 µg/mL (≈ 13.3 µM).
